Data from patent publication US20160045498A1, “METHODS OF TREATING DISEASES CHARACTERIZED BY EXCESSIVE WNT SIGNALLING” (THE WALTER AND ELIZA HALL INSTITUTE OF MEDICAL RESEARCH, priority 2013, published 2016).

Tests used:
[1] = test system: small intestine; experiment: Irradiation induced intestinal regeneration; format: in vivo; settings: gp130^F/F mice, AZD1480 30 mg/kg, 72 h after γ-irradiation (14 Gy)
Procedure: a Immunohistochemical analysis for the proliferation marker PCNA on sections of small intestines of wild-type (Wt), gp130^F/F (F/F), Stat3^+/−, gp130^F/F;Stat3^+/− (F/F Stat3^+/−), gp130^ΔStat/ΔStat (Δ/Δ) and gp130^ΔStat/+ (Δ/+) as well as of Wt and F/F mice treated with Jak2 kinase inhibitor AZD1480 (Jak2i; 30 mg/kg) 72 h after exposure to γ-irradiation. Scale bar=100 μm.
b Enumeration of intact crypts in cross sections from the proximal small intestine stained for PCNA obtained 72 h after exposure of mice of the indicated genotype to γ-irradiation. (*p≦0.04; n=3 mice).
Mice were irradiated with a single dose of 14 Gy of γ-irradiation (0.414 Gy/min) to determine regenerative potential of the small intestine as described (Ashton et al., 2010).

[2] = test system: intestinal tumours; experiment: Treatment of ApcMin mice with established intestinal tumours; format: in vivo; settings: Apc^Min mice treated daily 30 mg/kg from 6 to 12 weeks of age; increased in vehicle cohort
Description: Hematoxilin and Eosin-stained sections were scanned using an Aperio ScanScope XT (Aperio, USA) pathology slide scanner with a 20x PlanApo NA0.6 objective and areas of interest were extracted using Aperio ImageScope software v11.1.2.760. The area of individual tumors was outlined using MetaMorph v7.7.7 and standardized against the entire length of the colon section as described (Barker et al., 2009).

[3] = test system: SW480 cells; experiment: p-STAT3 / β-CATENIN immunofluorescence and SOCS3 RT-qPCR in SW480 cells; format: cell-based, human
Procedure: (§1) d Immunofluorescence staining for β-CATENIN or tyrosine-705 phosphorylated STAT3 in an isogenic pair of SW480 cells grown in the presence of 1 μM AZD1480 (Jak2i) or vehicle. SW480 cells are APC mutant and lack expression of functional APC protein, while SW480^APC cells have been reconstituted to express wild-type APC. Scale bar=20 μm.
(§2) g RT-qPCR expression analysis for the STAT3 target gene SOCS3 in SW480 and SW480^APC CRC cells grown for 10 days under colony forming conditions in soft agar in the presence of the indicated treatment. Expression in the vehicle-treated cultures was arbitrarily set as 1. (*p≦0.04; triplicate cultures in each of two repeats).
(§3) SW480 and SW480^APC cells (Faux et al., 2004) were seeded in 2 ml of RPMI media supplemented with 10% FBS and 1% penicillin/streptomycin in 35 mm culture dishes at a density of 2×10^5 cells per dish. Three days later cultures were exposed to AZD1480 (1 μM) for 15 min. Co-immunofluorescence was then performed with antibodies to rabbit phospho-Stat3 (Tyr705, Santa Cruz #9134s, 1:200 dilution) and mouse β-catenin (Transduction Laboratories, 1:400). Colony formation assays of SW480 cells in soft agar were performed as described (Faux et al., 2004) in the presence of either AZD1480, (1 μM), the Stat3 inhibitor S3I-201 (Biovision, 50 μM) or recombinant human IL11 (Genetics Institute, 10 ng/ml). All experiments were performed in triplicates and repeated at least once. Vehicle was methylcellulose.
(§4) Gene expression analysis by RT-qPCR was performed using the SybrGreen method (ABI) as described previously (Phesse et al., 2008). Fold change was calculated using the 2^−ΔΔCT method (Livak et al., 2001). Protein expression was analysed by Western blot by transferring SDS-PAGE separated protein lysates to nitrocellulose membrane and blocked either in 5% non-fat milk powder and probed with antibodies detecting p16 (Santa Cruz; #sc-467), Bmi1 (Millipore #[…]), Actin (Sigma; #A2066) or Gapdh (Santa Cruz; #sc-69778). All antibodies were diluted 1:1000 in BSA or non-fat milk powder and incubations were performed overnight.

[4] = test system: SW480^APC cells; experiment: p-STAT3 immunofluorescence and SOCS3 RT-qPCR in SW480APC cells; format: cell-based, human
Procedure: as §1, §2, §3, §4

[5] = test system: SW480^APC cells; experiment: Soft agar colony growth assay, SW480APC; format: cell-based, human; settings: 10 days, AZD1480 1 μM, S3I-201 50 μM, IL11 10 ng/ml
Procedure: e Photograph of SW480 and SW480^APC CRC cells grown for 10 days under colony forming conditions in soft agar in the presence of vehicle or 1 μM of Jak2 inhibitor AZD1480 (Jak2i) (Scale bar=200 μm)
f Colony forming capacity of an isogenic pair of SW480 cells scored 10 days after the indicated treatment. (*p≦0.04; triplicate cultures and repeated).
as §3

[6] = test system: DLD1 cells; experiment: DLD1 tumor xenografts; format: in vivo, mice (human DLD1 xenograft); settings: DLD1 (high Wnt signaling), BALB/c nude mice, daily gavage 30 mg/kg from day 7
Procedure: c, d Tumour xenograft burden in BALB/c nude mice injected s.c. with DLD1 cells or RKO cells in PBS and receiving daily gavage with AZD1480 (30 mg/kg) or vehicle starting on the 7th day after cell inoculation. (*p≦0.0004; two sided t-test; n=8).

[7] = test system: intestinal epithelium; experiment: Homeostatic turnover of the intestinal epithelium and body weight in treated mice; format: in vivo
Procedure: a qRT-PCR expression analysis for Wnt target genes from RNA extracted from AZD1480 or vehicle-treated BALB/c-nude hosts used for the xenograft experiments (*p<0.04, n≧5 mice). b Immunohistochemical analysis of cell proliferation (BrdU), goblet cells (Periodic Acid/Schiff, PAS) and Paneth cells ([…]) or vehicle Control. Scale bar 50 μm. c Weight of BALB/c-nude mice treated with either vehicle or AZD1480 (30 mg/kg, daily) between days 5 and 21 of xenograft experiment (n=8).

[8] = mice treated for 3 weeks, 30 mg/kg daily, vs vehicle

Compound: Cc1cc(Nc2nc(N[C@@H](C)c3ncc(F)cn3)ncc2Cl)n[nH]1 [AZD1480]
- intestinal regeneration [1]: impaired
- total tumour area [2]: remained remarkably constant
- tumour number [2]: remained remarkably constant
- accumulation of nuclear β-CATENIN ([3]; APC-deficient SW480, 1 μM AZD1480): did not diminish
- accumulation of activated (phosphorylated) p-STAT3 ([3]; SW480, 1 μM AZD1480): reduced accumulation
- SOCS3 expression ([3]; SW480, RT-qPCR, AZD1480 1 μM, IL11 10 ng/ml): reduced SOCS3 expression
- accumulation of activated (phosphorylated) p-STAT3 ([4]; 1 μM AZD1480): reduced accumulation
- SOCS3 expression ([4]; RT-qPCR, AZD1480 1 μM, IL11 10 ng/ml): reduced SOCS3 expression
- colony formation in soft agar [5]: did not affect colony formation
- xenograft growth [6]: sufficient to reduce xenograft growth
- body weight ([7]; BALB/c-nude mice, 30 mg/kg daily, days 5 to 21 of xenograft experiment): did not affect body weight
- intestinal expression of prototypical Wnt target genes ([7]; BALB/c-nude xenograft hosts, qRT-PCR): remained unaffected
- proportion of BrDU-positive proliferating intestinal epithelium cells [7, 8]: no differences
- proportion of PAS-staining goblet cells [7, 8]: no differences
- proportion of lysozyme-positive Paneth cells [7, 8]: no differences
